Experimental data taken from paper PMC9907135 (Proceedings of the National Academy of Sciences of the …, 2022).
Bridge positions count the residues as written; N and C are the ends. Square brackets hold non-standard residues; d marks the D form. Peptide text beside a SMILES is read from it. R8 = C=CCCCCCC[C@@](C)(N)C(=O)O; S5 = C=CCCC[C@](C)(N)C(=O)O

How the values were obtained:
PD-L1:PD-1 [1] = target: T1, PD-L1:PD-1 (Homo sapiens, UniProt Q9NZQ7); details: SPR ABA competition, 10 μM compound, 400 nM PD-1
Target sequence in this assay (Q9NZQ7 18-239): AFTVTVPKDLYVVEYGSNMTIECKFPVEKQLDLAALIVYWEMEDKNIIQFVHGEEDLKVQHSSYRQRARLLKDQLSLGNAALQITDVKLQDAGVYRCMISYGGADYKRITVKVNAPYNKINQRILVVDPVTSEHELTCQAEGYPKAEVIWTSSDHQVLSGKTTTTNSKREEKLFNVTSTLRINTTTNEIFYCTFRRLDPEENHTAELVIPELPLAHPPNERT
PD-L1:PD-1 [2] = target: T1, PD-L1:PD-1; details: competition ELISA; n = 2
Target sequence in this assay (Q9NZQ7 19-238 limits assumed): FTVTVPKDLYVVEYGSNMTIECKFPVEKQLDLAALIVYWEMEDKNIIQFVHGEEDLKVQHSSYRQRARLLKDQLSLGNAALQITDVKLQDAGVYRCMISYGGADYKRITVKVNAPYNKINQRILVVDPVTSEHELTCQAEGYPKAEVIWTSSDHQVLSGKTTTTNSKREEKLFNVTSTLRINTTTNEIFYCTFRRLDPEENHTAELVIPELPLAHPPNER

PD-L1 = PD-L1 (Homo sapiens, UniProt Q9NZQ7); details: TR-FRET; n = 3 for FP peptides, n = 2 for BMS-1001
PD-L1, sequence (Q9NZQ7 18-239): as the sequence (Q9NZQ7 18-239) above

RNF31 UBA domain = RNF31 UBA domain (Homo sapiens, UniProt Q96EP0); assay: biochemical
RNF31 UBA domain, sequence (Q96EP0 480-639): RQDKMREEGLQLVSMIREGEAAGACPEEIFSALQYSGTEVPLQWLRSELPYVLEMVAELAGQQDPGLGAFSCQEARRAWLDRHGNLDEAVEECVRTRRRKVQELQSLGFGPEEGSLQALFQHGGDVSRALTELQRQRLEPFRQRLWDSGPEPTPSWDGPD

Expi293 cells [3] = details: percentage of Helicons in cells after treatment and wash; Expi293 cells 1x10^6 cells/mL, 22 hours, 37°C; washed twice with DPBS; MS quantitation, single-point calibration; n=2, mean ± SD
Expi293 cells [4] = details: luminescence at Tfinal (22 hours) divided by Tinitial, measure of ATP levels, reflective of cell health

Cc1cc(CN[C@H](CO)C(=O)O)c(OCc2cccc(C#N)c2)cc1OCc1cccc(-c2ccc3c(c2)OCCO3)c1C [BMS-1001]
Competition with PD-1 for binding to PD-L1 (PD-L1:PD-1 [1]): compete more potently | Inhibition of PD-L1:PD-1 binding (PD-L1:PD-1 [2]): inhibits PD-L1:PD-1 binding | PD-L1 dimerization in solution (PD-L1): clear evidence of PD-L1 dimerization

CC[C@H](C)[C@H](NC(=O)[C@H](C)NC(=O)[C@@H]1CSCC(=O)Nc2ccc(cc2)NC(=O)CSC[C@H](NC(=O)[C@H](CCCNC(=N)N)NC(=O)[C@H](CCC(N)=O)NC(=O)[C@H](CCSC)NC(=O)[C@H](C)NC(=O)[C@@H]2CCCN2C(=O)[C@H](CC(=O)O)NC(C)=O)C(=O)N[C@@H](Cc2ccccc2)C(=O)N[C@@H](CO)C(=O)N[C@@H](C)C(=O)N[C@@H](C)C(=O)N[C@@H](C(C)C)C(=O)N[C@@H](Cc2ccc(O)cc2)C(=O)N1)C(=O)N[C@@H](CO)C(N)=O [FP06655]
koff (RNF31 UBA domain; read-out: RNF31 UBA Binding koff): 0.052 s⁻¹ | kon (RNF31 UBA domain; read-out: RNF31 UBA Binding kon): 1.4e+06 M⁻¹ s⁻¹

CC[C@H](C)[C@H](NC(C)=O)C(=O)N[C@@H](CC(C)C)C(=O)N[C@@H](CCC(N)=O)C(=O)N[C@]1(C)CCCCCCC=CCCC[C@@](C)(C(=O)N[C@@H](Cc2c[nH]cn2)C(=O)N[C@@H](Cc2ccc(O)cc2)C(=O)N[C@@H](CCC(N)=O)C(N)=O)NC(=O)[C@H](CO)NC(=O)[C@H](Cc2ccccc2)NC(=O)[C@H](C)NC(=O)[C@H](C)NC(=O)[C@H](CCC(=O)O)NC(=O)[C@H](Cc2ccc(O)cc2)NC1=O [FP07859] (Ac-ILQ[R8]YEAAFS[S5]HYQ-NH2; staple 4-11)
Helicon in cells ± SD (%) (Expi293 cells [3]): 0.1 ± 0.0% | CellTiter-Glo fold change ± SD (Expi293 cells [4]): 1.2 ± 0.02

CC[C@H](C)[C@H](NC(C)=O)C(=O)N[C@@H](CC(C)C)C(=O)N[C@@H](CCC(N)=O)C(=O)N[C@]1(C)CCCCCCC=CCCC[C@@](C)(C(=O)N[C@@H](Cc2c[nH]cn2)C(=O)N[C@@H](Cc2ccc(O)cc2)C(=O)N[C@@H](CCC(N)=O)C(N)=O)NC(=O)[C@H](CO)NC(=O)[C@H](Cc2ccccc2)NC(=O)[C@H](C)NC(=O)[C@H](C)NC(=O)[C@H](CCC(=O)O)NC(=O)[C@H](Cc2ccc(O)cc2)NC1=O [FP07860] (Ac-ILQ[R8]YEAAFS[S5]HYQ-NH2; staple 4-11)
Helicon in cells ± SD (%) (Expi293 cells [3]): 0.3 ± 0.0% | CellTiter-Glo fold change ± SD (Expi293 cells [4]): 1.2 ± 0.03
